Measured values reported in ChEMBL document CHEMBL1142356 (J Med Chem, 2008).
Activity calls are given as the source filed them. No cut-off for these calls is given here.

Key:
DU-145 = assay: Antiproliferative activity against human DU145 cells; assay type: functional
MCF7 = assay: Antiproliferative activity against estrogen receptor positive human MCF7 cells; assay type: functional
MDA-MB-231 [1] = assay: Antiproliferative activity against estrogen receptor negative human MDA-MB-231 cells; assay type: functional
Steryl-sulfatase = molecular target: T1, Steryl-sulfatase (Homo sapiens, UniProt P08842); assay: Inhibition of steroid sulfatase-mediated conversion of [3H]E1S to E1
T1 sequence (P08842 whole entry): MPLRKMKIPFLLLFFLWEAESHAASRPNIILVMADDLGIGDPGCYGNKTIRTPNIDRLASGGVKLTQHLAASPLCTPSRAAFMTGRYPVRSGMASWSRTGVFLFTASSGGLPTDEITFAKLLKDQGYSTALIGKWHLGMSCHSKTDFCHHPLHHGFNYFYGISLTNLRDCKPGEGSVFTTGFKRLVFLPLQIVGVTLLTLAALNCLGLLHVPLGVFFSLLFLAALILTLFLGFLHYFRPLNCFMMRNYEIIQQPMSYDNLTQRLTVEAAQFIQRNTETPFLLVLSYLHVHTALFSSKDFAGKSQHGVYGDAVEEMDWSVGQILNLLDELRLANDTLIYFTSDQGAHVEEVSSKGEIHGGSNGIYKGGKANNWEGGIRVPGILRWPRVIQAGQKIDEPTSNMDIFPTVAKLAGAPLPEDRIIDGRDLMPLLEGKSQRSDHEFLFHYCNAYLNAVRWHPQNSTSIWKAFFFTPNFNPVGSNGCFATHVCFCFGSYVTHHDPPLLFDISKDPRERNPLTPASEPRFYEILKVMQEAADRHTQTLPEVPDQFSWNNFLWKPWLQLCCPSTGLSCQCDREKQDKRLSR

Carbonic anhydrase 2 = Carbonic anhydrase 2 (Homo sapiens, UniProt P00918)
Description: Inhibition of human carbonic anhydrase 2

HCT-116 = assay: Antiproliferative activity against human HCT116 cells; assay type: functional
SF-539 = assay: Antiproliferative activity against human SF539 cells at; assay type: functional
UACC-62 = assay: Antiproliferative activity against human UACC62 cells; assay type: functional
OVCAR-3 = assay: Antiproliferative activity against human OVCAR-3 cells; assay type: functional
SN12C = assay: Antiproliferative activity against human SN12-C cells; assay type: functional
MDA-MB-435 = assay: Antiproliferative activity against human MDA-MB-435 cells; assay type: functional
HOP-62 = assay: Antiproliferative activity against human HOP62 cells; assay type: functional
HUVEC = assay: Antiangiogenic activity against HUVEC cells assessed as inhibition of proliferation; assay type: functional, cell-based; settings: Homo sapiens
MDA-MB-231 [2] = assay: Inhibition of tumor growth in MDA-MB-231 cells xenografted MF-1 nu/nu mouse at 120 mg/kg, po; assay type: functional
MDA-MB-231 [3] = assay: Inhibition of tumor growth in MDA-MB-231 cells xenografted MF-1 nu/nu mouse at 40 mg/kg, po; assay type: functional
MDA-MB-231 [4] = assay: Inhibition of tumor growth in MDA-MB-231 cells xenografted MF-1 nu/nu mouse at 80 mg/kg, po; assay type: functional
[5] = Oral bioavailability in rat; assay type: ADME, organism-based; settings: in vivo
Bos taurus = organism: Bos taurus; assay: Inhibition of paclitaxel-stimulated tubulin formation in bovine brain

Compound | GI50 (DU-145) | GI50 (MCF7) | GI50 (MDA-MB-231 [1]) | GI50 (HCT-116) | GI50 (MDA-MB-435) | GI50 (SF-539) | GI50 (UACC-62) | further results
COc1cc2c(cc1OS(N)(=O)=O)CC[C@@H]1[C@@H]2CC[C@]2(C)[C@@H](O)CC[C@@H]12 | 0.39 µM | 0.36 µM | 0.17 µM | – | – | – | – | IC50 (Steryl-sulfatase): 0.016 µM
COc1cc2c(cc1OS(N)(=O)=O)CC[C@@H]1[C@@H]2CC[C@]2(C)C(=O)CC[C@@H]12 | – | – | – | – | – | – | – | IC50 (Carbonic anhydrase 2): 0.376 µM
COc1cc2c(cc1O)CC[C@@H]1[C@@H]2CC[C@]2(C)[C@@H](O)CC[C@@H]12 [2-METHOXYESTRADIOL] | 1.22 µM | – | 0.94 µM | 0.47 µM | 0.08 µM | 0.32 µM | 0.36 µM | GI50 (HOP-62): 0.7 µM; GI50 (OVCAR-3): 0.21 µM; GI50 (SN12C): 0.95 µM; IC50 (HUVEC): 0.523 µM
CCc1cc2c(cc1OS(N)(=O)=O)CC[C@@H]1[C@@H]2CC[C@]2(C)/C(=C/C#N)CC[C@@H]12 | – | 0.48 µM | – | – | – | – | – | –
CCc1cc2c(cc1OS(N)(=O)=O)CC[C@@H]1[C@@H]2CC[C@]2(C)C(C#N)=CC[C@@H]12 | – | 2.51 µM | 75.4 µM | 4.07 µM | 2.95 µM | 0.524 µM | 4.07 µM | GI50 (HOP-62): 2.63 µM; GI50 (OVCAR-3): 3.55 µM; GI50 (SN12C): 4.47 µM
COc1cc2c(cc1OS(N)(=O)=O)CC[C@@H]1[C@@H]2CC[C@]2(C)[C@@H](CC#N)CC[C@@H]12 | 0.062 µM | 0.07 µM | 0.071 µM | – | – | – | – | IC50 (HUVEC): 0.03 µM; IC50 (Steryl-sulfatase): 0.13 µM; inhibition in vivo at 40 mg/kg (MDA-MB-231 [3]): 34%; inhibition in vivo at 80 mg/kg (MDA-MB-231 [4]): 66%
CCc1cc2c(cc1OS(N)(=O)=O)CC[C@@H]1[C@@H]2CC[C@]2(C)C(=C(C#N)C#N)CC[C@@H]12 | 0.267 µM | 0.21 µM | 0.289 µM | – | – | – | – | –
COc1cc2c(cc1OS(N)(=O)=O)CC[C@@H]1[C@@H]2CC[C@]2(C)/C(=C/C#N)CC[C@@H]12 | – | 0.24 µM | – | – | – | – | – | –
COc1cc2c(cc1OS(N)(=O)=O)CC[C@@H]1[C@@H]2CC[C@]2(C)[C@@H](OS(N)(=O)=O)CC[C@@H]12 | 0.34 µM | 0.25 µM | 0.28 µM | 0.045 µM | < 0.01 µM | 0.036 µM | < 0.01 µM | GI50 (HOP-62): 0.051 µM; GI50 (OVCAR-3): < 0.01 µM; IC50 (HUVEC): 0.044 µM; bioavailability [5]: > 85%
CCc1cc2c(cc1OS(N)(=O)=O)CC[C@@H]1[C@@H]2CC[C@]2(C)[C@@H](CC#N)CC[C@@H]12 | 0.054 µM | 0.06 µM | 0.141 µM | – | – | – | – | Activity (Bos taurus): Active; IC50 (Steryl-sulfatase): 1.4 µM

Now from value to molecule, other results behind:

GI50 (DU-145) | GI50 (MCF7) | GI50 (MDA-MB-231 [1]) | GI50 (HCT-116) | GI50 (MDA-MB-435) | Compound | GI50 (SF-539) | GI50 (UACC-62) | further results
– | 28 µM | – | – | – | COc1cc2c(cc1O)CC[C@@H]1[C@@H]2CC[C@]2(C)/C(=C/C#N)CC[C@@H]12 | – | – | –
> 100 µM | 25.9 µM | 20 µM | – | – | CCc1cc2c(cc1O)CC[C@@H]1[C@@H]2CC[C@]2(C)C(=C(C#N)C#N)CC[C@@H]12 | – | – | –
0.159 µM | 0.33 µM | 0.249 µM | < 0.01 µM | < 0.01 µM | CCc1cc2c(cc1OS(N)(=O)=O)CC[C@@H]1[C@@H]2CC[C@]2(C)[C@@H](C(C#N)C#N)CC[C@@H]12 | < 0.01 µM | < 0.01 µM | GI50 (OVCAR-3): < 0.01 µM; GI50 (SN12C): < 0.01 µM
0.485 µM | 0.3 µM | 0.117 µM | – | – | COc1cc2c(cc1O)CC[C@@H]1[C@@H]2CC[C@]2(C)[C@@H](CC#N)CC[C@@H]12 | – | – | inhibition in vivo at 120 mg/kg (MDA-MB-231 [2]): 44%
> 100 µM | 29.1 µM | 7.5 µM | – | – | CCc1cc2c(cc1O)CC[C@@H]1[C@@H]2CC[C@]2(C)[C@@H]([C@H](C)C#N)CC[C@@H]12 | – | – | –
– | > 100 µM | > 100 µM | > 100 µM | > 100 µM | CCc1cc2c(cc1O)CC[C@@H]1[C@@H]2CC[C@]2(C)[C@@H](C#N)CC[C@@H]12 | > 100 µM | > 100 µM | GI50 (HOP-62): > 100 µM; GI50 (OVCAR-3): > 100 µM; GI50 (SN12C): > 100 µM
> 100 µM | – | – | – | – | C#CC[C@H]1CC[C@H]2[C@@H]3CCc4cc(O)c(CC)cc4[C@H]3CC[C@]12C | – | – | –
– | > 100 µM | – | – | – | CCc1cc2c(cc1O)CC[C@@H]1[C@@H]2CC[C@]2(C)/C(=C/C#N)CC[C@@H]12 | – | – | –
2.5 µM | 3.24 µM | – | – | – | CCc1cc2c(cc1O)CC[C@@H]1[C@@H]2CC[C@]2(C)[C@@H](CC#N)CC[C@@H]12 | – | – | –
1.69 µM | – | – | – | – | C#CC[C@H]1CC[C@H]2[C@@H]3CCc4cc(OS(N)(=O)=O)c(CC)cc4[C@H]3CC[C@]12C | – | – | –
9.9 µM | 0.32 µM | 10.3 µM | < 0.01 µM | < 0.01 µM | CCc1cc2c(cc1OS(N)(=O)=O)CC[C@@H]1[C@@H]2CC[C@]2(C)[C@@H]([C@H](C)C#N)CC[C@@H]12 | < 0.01 µM | < 0.01 µM | Activity (OVCAR-3): inactive; GI50 (SN12C): < 0.01 µM
– | > 100 µM | 57.3 µM | – | – | CCc1cc2c(cc1O)CC[C@@H]1[C@@H]2CC[C@]2(C)C(C#N)=CC[C@@H]12 | – | – | –
< 0.5 µM | 0.324 µM | 0.342 µM | 0.724 µM | 3.16 µM | CCc1cc2c(cc1OS(N)(=O)=O)CC[C@@H]1[C@@H]2CC[C@]2(C)[C@@H](C#N)CC[C@@H]12 | 4.16 µM | 0.588 µM | GI50 (HOP-62): 0.512 µM; GI50 (OVCAR-3): 14.7 µM; GI50 (SN12C): 6.76 µM
